Test results published in patent publication US20100267561A1, “HERBICIDAL PYRIDAZINONE DERIVATIVES” (priority 2007, published 2010).

Experiments:
Experiment in all cases: Test B pre-/postemergence plant response
Assay type in all cases: in vivo
[1] = test system: blackgrass (Alopecurus myosuroides)
Method in brief: (§1)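 Visual scoring from 0 (no effect) to 100 (complete control) against untreated controls was done 13 to 15 days after greenhouse treatment. Chemicals were formulated in a surfactant-containing non-phytotoxic solvent and applied to soil preemergence or to 1- to 4-leaf (2-18 cm) plants postemergence.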

[2] = test system: common (oilseed) sunflower (Helianthus annuus); conditions: Preemergence
Method in brief: as §1

kochia (Kochia scoparia) = test system: kochia (Kochia scoparia)
Method in brief: as §1

[3] = test system: giant foxtail (Setaria faberii)
Method in brief: as §1

corn (Zea mays) = test system: corn (Zea mays)
Method in brief: as §1

[4] = test system: velvetleaf (Abutilon theophrasti)
Method in brief: as §1

[5] = test system: yellow nutsedge (Cyperus esculentus)
Method in brief: as §1

wild oat (Avena fatua) = test system: wild oat (Avena fatua)
Method in brief: as §1

[6] = test system: common ragweed (Ambrosia elation)
Method in brief: as §1

[7] = test system: downy bromegrass (Bromus tectorum)
Method in brief: as §1

[8] = test system: lambsquarters (Chenopodium album)
Method in brief: as §1

[9] = test system: pigweed (Amaranthus retroflexus)
Method in brief: as §1

[10] = test system: woolly cupgrass (Eriochloa villosa)
Method in brief: as §1

[11] = test system: catchweed bedstraw (Galium aparine); conditions: Preemergence, scale 0 to 100
Method in brief: as §1

[12] = Postemergence, 31 g ai/ha, scale 0 to 100, 0 no effect, 100 complete control
[13] = Postemergence, 62 g ai/ha, scale 0 to 100
[14] = Postemergence, 125 g ai/ha, scale 0 to 100
[15] = Postemergence, 250 g ai/ha, scale 0 to 100
[16] = Preemergence, 31 g ai/ha, 0 to 100 scale, 0 no effect, 100 complete control
[17] = Preemergence, 62 g ai/ha, scale 0 to 100
[18] = Preemergence, 125 g ai/ha, scale 0 to 100
[19] = Preemergence, 250 g ai/ha, scale 0 to 100

Substance: 5-[3-(4-chlorophenyl)-5-methyl-1H-pyrazol-1-yl]-1,6-dihydro-1-methyl-6-oxo-4-pyridazinyl-1-methylethyl carbonate [Compound 7]
- Blackgrass plant response rating ([1]; 250 g ai/ha, preemergence, 0-100 scale): 100
- Plant response rating, Blackgrass [1, 12]: 85
- Plant response rating, Blackgrass [1, 13]: 90
- Plant response rating, Blackgrass [1, 14]: 100
- Plant response rating, Blackgrass [1, 15]: 100
- Plant response rating, Blackgrass [1, 16]: 70
- Plant response rating, Blackgrass [1, 17]: 85
- Plant response rating, Blackgrass [1, 18]: 100
- Plant response rating, Sunflower ([2]; 31 g ai/ha, 0 to 100 scale, 0 no effect, 100 complete control): 0
- Plant response rating, Sunflower ([2]; 62 g ai/ha, scale 0 to 100): 0
- Plant response rating, Sunflower ([2]; 125 g ai/ha, scale 0 to 100): 0
- Plant response rating, Sunflower ([2]; 250 g ai/ha, scale 0 to 100): 0
- Plant response rating, Kochia (kochia (Kochia scoparia); [12]): 0
- Plant response rating, Kochia (kochia (Kochia scoparia); [13]): 0
- Plant response rating, Kochia (kochia (Kochia scoparia); [14]): 0
- Plant response rating, Kochia (kochia (Kochia scoparia); [15]): 10
- Plant response rating, Kochia (kochia (Kochia scoparia); [16]): 0
- Plant response rating, Kochia (kochia (Kochia scoparia); [17]): 0
- Plant response rating, Kochia (kochia (Kochia scoparia); [18]): 0
- Plant response rating, Kochia (kochia (Kochia scoparia); [19]): 0
- Plant response rating, Foxtail, Giant [3, 12]: 98
- Plant response rating, Foxtail, Giant [3, 13]: 100
- Plant response rating, Foxtail, Giant [3, 14]: 100
- Plant response rating, Foxtail, Giant [3, 15]: 100
- Plant response rating, Foxtail, Giant [3, 16]: 100
- Plant response rating, Foxtail, Giant [3, 17]: 100
- Plant response rating, Foxtail, Giant [3, 18]: 100
- Plant response rating, Foxtail, Giant [3, 19]: 100
- Plant response rating, Corn (corn (Zea mays); [12]): 90
- Plant response rating, Corn (corn (Zea mays); [13]): 90
- Plant response rating, Corn (corn (Zea mays); [14]): 90
- Plant response rating, Corn (corn (Zea mays); [15]): 90
- Plant response rating, Corn (corn (Zea mays); [16]): 90
- Plant response rating, Corn (corn (Zea mays); [17]): 95
- Plant response rating, Corn (corn (Zea mays); [18]): 98
- Plant response rating, Corn (corn (Zea mays); [19]): 100
- Plant response rating, Velvetleaf [4, 12]: 0
- Plant response rating, Velvetleaf [4, 13]: 0
- Plant response rating, Velvetleaf [4, 14]: 0
- Plant response rating, Velvetleaf [4, 15]: 0
- Plant response rating, Velvetleaf [4, 16]: 0
- Plant response rating, Velvetleaf [4, 17]: 0
- Plant response rating, Velvetleaf [4, 18]: 0
- Plant response rating, Velvetleaf [4, 19]: 0
- Plant response rating, Nutsedge, Yellow [5, 12]: 0
- Plant response rating, Nutsedge, Yellow [5, 13]: 0
- Plant response rating, Nutsedge, Yellow [5, 14]: 0
- Plant response rating, Nutsedge, Yellow [5, 15]: 0
- Plant response rating, Nutsedge, Yellow [5, 16]: 0
- Plant response rating, Nutsedge, Yellow [5, 17]: 0
- Plant response rating, Nutsedge, Yellow [5, 18]: 0
- Plant response rating, Nutsedge, Yellow [5, 19]: 0
- Plant response rating, Oat, Wild (wild oat (Avena fatua); [12]): 95
- Plant response rating, Oat, Wild (wild oat (Avena fatua); [13]): 95
- Plant response rating, Oat, Wild (wild oat (Avena fatua); [14]): 95
- Plant response rating, Oat, Wild (wild oat (Avena fatua); [15]): 95
- Plant response rating, Oat, Wild (wild oat (Avena fatua); [16]): 0
- Plant response rating, Oat, Wild (wild oat (Avena fatua); [17]): 70
- Plant response rating, Oat, Wild (wild oat (Avena fatua); [18]): 80
- Plant response rating, Oat, Wild (wild oat (Avena fatua); [19]): 85
- Plant response rating, Ragweed [6, 12]: 0
- Plant response rating, Ragweed [6, 13]: 0
- Plant response rating, Ragweed [6, 14]: 0
- Plant response rating, Ragweed [6, 15]: 0
- Plant response rating, Ragweed [6, 16]: 0
- Plant response rating, Ragweed [6, 17]: 0
- Plant response rating, Ragweed [6, 18]: 0
- Plant response rating, Ragweed [6, 19]: 20
- Plant response rating, Bromegrass, Downy [7, 12]: 0
- Plant response rating, Bromegrass, Downy [7, 13]: 0
- Plant response rating, Bromegrass, Downy [7, 14]: 0
- Plant response rating, Bromegrass, Downy [7, 15]: 0
- Plant response rating, Bromegrass, Downy [7, 16]: 35
- Plant response rating, Bromegrass, Downy [7, 17]: 35
- Plant response rating, Bromegrass, Downy [7, 18]: 60
- Plant response rating, Bromegrass, Downy ([7]; Preemergence, 250 g ai/ha, scale 0 to 100 (0 no effect, 100 complete control)): 60
- Plant response rating, Lambsquarters [8, 12]: 0
- Plant response rating, Lambsquarters [8, 13]: 0
- Plant response rating, Lambsquarters [8, 14]: 0
- Plant response rating, Lambsquarters [8, 15]: 10
- Plant response rating, Lambsquarters [8, 16]: 30
- Plant response rating, Lambsquarters [8, 17]: 30
- Plant response rating, Lambsquarters [8, 18]: 90
- Plant response rating, Lambsquarters [8, 19]: 100
- Plant response rating, Pigweed [9, 12]: 0
- Plant response rating, Pigweed [9, 13]: 0
- Plant response rating, Pigweed [9, 14]: 0
- Plant response rating, Pigweed [9, 15]: 20
- Plant response rating, Pigweed [9, 16]: 85
- Plant response rating, Pigweed [9, 17]: 100
- Plant response rating, Pigweed [9, 18]: 100
- Plant response rating, Cupgrass, Woolly [10, 12]: 100
- Plant response rating, Cupgrass, Woolly [10, 13]: 100
- Plant response rating, Cupgrass, Woolly [10, 14]: 100
- Plant response rating, Cupgrass, Woolly [10, 15]: 100
- Plant response rating, Cupgrass, Woolly [10, 16]: 70
- Plant response rating, Cupgrass, Woolly [10, 17]: 70
- Plant response rating, Cupgrass, Woolly [10, 18]: 85
- Plant response rating, Cupgrass, Woolly [10, 19]: 100
- Plant response rating, Galium ([11]; 62 g ai/ha): 0
- Plant response rating, Galium ([11]; 125 g ai/ha): 80
- Plant response rating, Galium ([11]; 250 g ai/ha): 80
